What was measured:
FLEAS (Siphoneptera) = assay: Comparative flea control on dogs, percent control; format: in vivo; design: Percent control fleas: concentration or dose not given beside the values
From the text: (§1) The purpose of this study was to was to determine comparative flea and tick control over a 30 day interval of a combination application of a pyrethroid and a chloronicotinyl insecticide applied dermally to dogs. This combination was compared with permethrin alone, imidacloprid alone, fipronil and selamectin. The latter two compounds are present in products that currently carry claims for both tick and flea control
(§2) Thirty-six dogs were divided into six groups of 6 dogs per group. Each dog received a single topically-applied treatment of the either “Kiltix”, a product available from Bayer Corporation containing 45% w/w permethrin, Advantage®, a product available from Bayer Corporation containing 9.1% w/w imidacloprid, a combination of Kiltix and Advantage containing 45% w/w permethrin+9.1% w/w imidacloprid, Top Spot), a product available from Merial containing 9.7% fipronil or Revolution®, a product available from Pfizer Inc. containing 12% w/v selamectin in accordance with the appropriate dose and label instructions for the various product applications. Control dogs remained untreated. All products were provided in the commercial unit dose applicator tubes.
(§3) The dogs were bathed with a mild non-medicated shampoo and thoroughly combed to remove any existing fleas or ticks 7 to 14 days prior to treatment. The dogs were infested with 100 unfed adult ticks (50 Dermacentor variabilis and 50 Rhipiciphalus sanguineus) and 100 unfed adult fleas on Day −3. Live fleas and ticks were counted on Day −1. The dogs were ranked according to total pretreatment live tick counts from highest to lowest. The 36 dogs with the highest counts were selected for the study. Each consecutive group of 6 dogs comprised one block. Treatment was randomly assigned within each block of dogs.
(§4) Each dog was examined visually for fleas and ticks on Days 1, 7, 14, 21, and 28 following treatment. The hair was parted with the thumbs and fingers to count fleas and ticks. Live tick counts were recorded by species. Live ticks only were counted visually on Days 2, 8, 15, 22, and 29. The dogs were combed on Days 3, 9, 16, 23, and 30. All remaining live fleas and ticks were counted and removed.

[1] = system: both species of ticks (D. variabilis and R. sanguineus); assay: Tick control on dogs, both species together; format: in vivo, Dermacentor variabilis and Rhipicephalus sanguineus; settings: both tick species
From the text: as §1
Thirty-six dogs were divided into six groups of 6 dogs per group. […]
The dogs were bathed with a mild non-medicated shampoo and thoroughly combed to remove any existing fleas or ticks 7 to 14 days prior to treatment. […] Live fleas and ticks were counted on Day −1. […]
Each dog was examined visually for fleas and ticks on Days 1, 7, 14, 21, and 28 following treatment. […] Live tick counts were recorded by species. Live ticks only were counted visually on Days 2, 8, 15, 22, and 29. […] All remaining live fleas and ticks were counted and removed.

R. SANGUINEUS = assay: Comparative tick control on dogs, R. sanguineus, percent control; format: in vivo, Rhipicephalus sanguineus; design: Percent control R. sanguineus: concentration or dose not given beside the values
From the text: as §1, §2, §3, §4

D. VARIABILIS = assay: Comparative tick control on dogs, D. variabilis, percent control; format: in vivo, Dermacentor variabilis; design: concentration or dose not given beside the values
From the text: as §1, §2, §3, §4

[2] = Study Day 1, single topical treatment
[3] = Study Day 2, single topical treatment
[4] = Study Day 3, single topical treatment
[5] = Study Day 7, single topical treatment
[6] = Study Day 8, single topical treatment
[7] = Study Day 9, single topical treatment
[8] = Study Day 14, single topical treatment
[9] = Study Day 15, single topical treatment
[10] = Study Day 16, single topical treatment
[11] = Study Day 21, single topical treatment
[12] = Study Day 22, single topical treatment
[13] = Study Day 23, single topical treatment
[14] = Study Day 28, single topical treatment

## N#Cc1nn(-c2c(Cl)cc(C(F)(F)F)cc2Cl)c(N)c1[S+]([O-])C(F)(F)F (stereo not drawn) [Fipronil, fipronil]
FLEAS (Siphoneptera)
  flea kill compared with imidacloprid or the combination (in words): rate of flea kill equal to that of imidacloprid or the combination of imidacloprid and permethrin
FLEAS (Siphoneptera); Day 1, single topical treatment
  Percent control fleas: 100%
FLEAS (Siphoneptera); Day 3, single topical treatment
  Percent control fleas: 100%
FLEAS (Siphoneptera); Day 7, single topical treatment
  Percent control fleas: 100%
FLEAS (Siphoneptera); Day 9, single topical treatment
  Percent control fleas: 100%
FLEAS (Siphoneptera); Day 14, single topical treatment
  Percent control fleas: 100%
FLEAS (Siphoneptera); Day 16, single topical treatment
  Percent control fleas: 100%
FLEAS (Siphoneptera); Day 21, single topical treatment
  Percent control fleas: 100%
FLEAS (Siphoneptera); Day 23, single topical treatment
  Percent control fleas: 100%
FLEAS (Siphoneptera); Day 28, single topical treatment
  Percent control fleas: 100%
FLEAS (Siphoneptera); Day 30, single topical treatment
  Percent control fleas: 100%
FLEAS (Siphoneptera); Day −1 (pretreatment count)
  Percent control fleas: 22.4%
[1]
  onset of tick kill (in words): early kill, similar to that of the combination of permethrin and imidacloprid
R. SANGUINEUS; [2]
  Percent control R. sanguineus: 96.3%
R. SANGUINEUS; [3]
  Percent control R. sanguineus: 100%
R. SANGUINEUS; [4]
  Percent control R. sanguineus: 100%
R. SANGUINEUS; [5]
  Percent control R. sanguineus: 100%
R. SANGUINEUS; [6]
  Percent control R. sanguineus: 100%
R. SANGUINEUS; [7]
  Percent control R. sanguineus: 100%
R. SANGUINEUS; [8]
  Percent control R. sanguineus: 99.4%
R. SANGUINEUS; [9]
  Percent control R. sanguineus: 100%
R. SANGUINEUS; [10]
  Percent control R. sanguineus: 99.4%
R. SANGUINEUS; [11]
  Percent control R. sanguineus: 86.0%
R. SANGUINEUS; [12]
  Percent control R. sanguineus: 100%
R. SANGUINEUS; [13]
  Percent control R. sanguineus: 100%
R. SANGUINEUS; [14]
  Percent control R. sanguineus: 65.3%
D. VARIABILIS; [2]
  Percent control D. variabilis: *92.9%
D. VARIABILIS; [3]
  Percent control D. variabilis: *100%
D. VARIABILIS; [4]
  Percent control D. variabilis: 100%
D. VARIABILIS; [5]
  Percent control D. variabilis: 100%
D. VARIABILIS; [6]
  Percent control D. variabilis: 100%
D. VARIABILIS; [7]
  Percent control D. variabilis: 100%
D. VARIABILIS; [8]
  Percent control D. variabilis: 98.7%
D. VARIABILIS; [9]
  Percent control D. variabilis: 100%
D. VARIABILIS; [10]
  Percent control D. variabilis: 100%
D. VARIABILIS; [11]
  Percent control D. variabilis: 92.7%
D. VARIABILIS; [12]
  Percent control D. variabilis: 98.7%
D. VARIABILIS; [13]
  Percent control D. variabilis: 100%
D. VARIABILIS; [14]
  Percent control D. variabilis: 69.7%
